Laboratory results as given in patent US20230242956A1, “POLYPHOSPHATE KINASE MUTANT, ENGINEERED STRAIN AND APPLICATION THEREOF” (ZHEJIANG UNIVERSITY OF TECHNOLOGY, priority 2022, published 2023).

Target: T1, Cytophaga hutchinsonii polyphosphate kinase (ChPPK) mutant A79G/S106C/I108F/L285P (parent SEQ ID NO: 2) (Cytophaga hutchinsonii, UniProt A0A6N4SMB5, A79G/I108F/L285P/S106C)
T1 sequence (A0A6N4SMB5 with tags, fused parts or gaps A79G/S106C/I108F/L285P): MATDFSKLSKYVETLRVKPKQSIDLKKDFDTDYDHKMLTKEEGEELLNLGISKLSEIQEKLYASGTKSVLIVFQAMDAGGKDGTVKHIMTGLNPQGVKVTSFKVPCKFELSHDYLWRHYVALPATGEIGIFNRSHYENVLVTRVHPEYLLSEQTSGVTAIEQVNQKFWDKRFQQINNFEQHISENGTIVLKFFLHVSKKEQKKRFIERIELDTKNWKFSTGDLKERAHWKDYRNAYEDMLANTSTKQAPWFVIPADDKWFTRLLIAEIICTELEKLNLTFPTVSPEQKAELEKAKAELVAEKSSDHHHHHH
Experiment: Kinetic parameters of mutant ChPPK/A79G/S106C/I108F/L285P (pure enzyme, pseudo-one-substrate kinetic model, ATP by HPLC)
Format: biochemical
Conditions: mutant versus wild-type; substrate AMP or PPA
Description: (2) Pure enzyme: 5 mL of the crude enzyme solution was diluted with 40 mL of potassium phosphate buffer (20 mM, pH 7.2), and then applied to a HisTrap HP purification column of GE Healthcare (10 mL column, pre-washed with a pH 7.2, 20 mM potassium phosphate buffer containing 500 mM NaCl). The resulting purification column was eluted with 100 mL of washing buffer (a pH7.2, 20 mM potassium phosphate buffer containing 500 mM sodium chloride and 50 mM imidazole) at a rate of 0.5 mL/min to remove the absorbed protein impurities, and then eluted with an elution buffer (a pH7.2, 20 mM potassium phosphate buffer containing 500 mM sodium chloride and 50 mM imidazole) at a speed of 0.5 mL/min to collect an elution solution containing the target protein. Then the elution solution containing the target protein was dialyzed in a dialysis bag (the MWCO of the dialysis bag was 14 KDa) with a pH7.2 of 20 mM potassium phosphate buffer for 48h, and the retentate was taken as pure enzyme. The concentration of the pure enzyme was determined by Beyotime BCA Protein Assay Kit(P0012), and the amount of the pure enzyme used in the following examples was calculated by protein content.
0.4 mg of the crude enzyme solution prepared by the method in Example 2 or 0.05 mg of the pure enzyme, polyphosphoric acid (PPA) at a final concentration of 1.6 g/L, adenosine phosphate (AMP) at a final concentration of 2.25 mM, and MgCl2 at a final concentration of 10 mM were added to 10 mL of 50 mM potassium phosphate buffer (pH 7.5). The reaction solution was incubated at 37° C. for 5 min, and then 10 mL of 0.2 M phosphoric acid solution was added to terminate the reaction. The ATP content in the solution was determined by HPLC method. […]
The wild-type Ecoli.BL21(DE3)-ChPPK constructed by the method of Example 1 and the engineered strain Ecoli.BL21(DE3)-ChPPK/A79G/S106C/I108F/L285P constructed by the method of Example 6 were used to prepare pure enzymes by the method of Example 2. Km and Kcat were calculated by pseudo-one-substrate kinetic model. […]

What does the source list for Nc1ncnc2c1ncn2[C@@H]1O[C@H](COP(=O)(O)O)[C@@H](O)[C@H]1O [AMP, adenosine phosphate]?
Km, wild-type compared with mutant (in words): similar; catalytic efficiency (kcat/Km) of the mutant, fold higher than wild-type ChPPK: 16 fold; turnover number (kcat value), mutant compared with wild-type (in words): increased
